The source of these data is patent US20230181475A1, “COMPOSITION COMPRISING METHYLFOLATE” (ALFASIGMA S.P.A., priority 2020, published 2023).

In assay [1] the test system is C57Black/6J mice subjected to CUS. Put plainly: Forced swimming test (FST) in mice subjected to Chronic Unpredictable Stress (CUS). It counts as in vivo. Conditions: MTHF 3 mg/kg, LAC 30 mg/kg; for effect on immobility time in FST / effects of chronic stress (in words): 3 days of treatment; for Total Immobility Time (sec) + SD: i.p. 3 days of treatment, last 4 minutes of 6 min test, n=8. How it is done:
The animal study was performed in a validate experimental model subject to Chronic Unpredictable Stress (CUS), as described in J H Cryan et al. in J. Neubiorev. 2005, 03, 009, for a period of 4 weeks to induce the depressive phenotype CUS. The CUS allows the depressive phenotype responsive to standard antidepressant treatments to be reproduced in vivo in mammals. The animals were divided in five groups and the group which received the combination of MTHF with LAC was compared with the groups which received MTHF and LAC separately. All the groups were compared with the group which received saline solution and the group which not submitted to CUS.
The mice were subjected to CUS for 4 weeks, and the drug treatment started at the 3rd week of CUS and maintained until the end of the 4-week treatment.
To assess the antidepressant effects of the selected product LAC and MTHF the animals were submitted to the Forced swimming test (“FST”) as described in J H Cryan et al. in J. Neubiorev. 2005, 03, 009 and measured the Total Immobility Time expressed in the […] of animals.
Forty, 7-week-old male C57Black/6J, mice were subjected to CUS (“Chronic Unpredictable Mild Stress”), a validate model that allow the depressive phenotype as described in J H Cryan et al. in J. Neubiorev. 2005, 03, 009.
The mice were subjected to CUS for 4 weeks, during which different types of stress were applied to the animals twice-a-day in a random and unpredictable manner: one session during the day lasting 1-3 hours, and one session during the night (lasting 12 hours), with at least 6 hours of interval between the two sessions. […]
To assess the antidepressant behavioural effects of the selected product LAC and MEF the animals were submitted to the Forced swimming test (“FST”) as described in J H Cryan et al. in J. Neubiorev. 2005, 03, 009 and the Total Immobility Time measured in the 5 group of animals.
During the test the mice were placed individually for 6 minutes in transparent plexiglass cylinders (25 cm high and 22 cm in diameter) filled with warm water (28° C.), in sufficient quantity to prevent the mouse from touching the bottom of the cylinder with hind legs. The animal was videotaped, and then the immobility time (expressed in seconds) was measured during the last 4 minutes of the test.

The test system of another assay is BDNF protein. Put plainly: Western blot of BDNF protein in frontal cortex of CUS mice. It counts as in vivo. Conditions: 14 days i.p. treatment, MTHF 3 mg/kg, LAC 30 mg/kg. The method, then: Mice after 4 weeks of CUS and 2 week of pharmacological treatments, as described before, at the end of Week 5 the animals were sacrificed and the level of BDNF protein were measured in Frontal Cortex by western blot.
Drug treatment started at the 3rd week of CUS and it was maintained for 2 weeks, the study ending at Week 5 for the start of the experiment. Behavioural tests were performed 3 days after the beginning of treatments, while post-mortem protein studies in the mouse brain were performed after 14 days of treatment, at the end of Week 5.
Mice were treated as described in Example 19. After 4 weeks of CUS and 2 week of pharmacological treatments (as described in Example 19), at the end of Week 5 the animals were sacrificed and the level of BDNF protein were measured in Hippocampus and Frontal Cortex by western blot. Table 28 reports the protein levels of BDNF, a neuronal trophic factor related to chronic stress and depression, in the Frontal Cortex of mice.
The antibody recognizes the mature form of the 17 KDa BDNF.
On the technique in general: A western blot detects proteins with antibodies after separation by electrophoresis.

`CC(=O)O[C@H](CC(=O)[O-])C[N+](C)(C)C` [LAC, Acetyl L-carnitine]: in assay [1], the “effect on immobility time in FST / effects of chronic stress (in words)” value was “not antagonised” and the “Total Immobility Time (sec) + SD” value is reported as 245.75 + 30.34 sec. Moreover, in the assay with BDNF protein, the “Western blot BDNF in frontal cortex, Optical Density bands + SD” value was 113.29 + 28.95.

Turning to “calcium L-5-methyl-(6S)-tetrahydrofolate [MTHF]”, in assay [1], the “effect on immobility time in FST / effects of chronic stress (in words)” value is reported as “not antagonised” and the “Total Immobility Time (sec) + SD” value was 230 + 14.20 sec. In addition, the “Western blot BDNF in frontal cortex, Optical Density bands + SD” value in the assay on BDNF protein is 138.46 + 18.26.
